# Earlier results as cited in patent US20060188492A1, “Topical management of ocular and periocular conditions” (ChronoRX LLC, an Alaska Limited Liability Company, priority 2005, published 2006).
# How the values were obtained:
# lens = settings: experimental evidence; compared with the R isomer
# [1] = test system: bovine aortic endothelial cells; settings: LA added before endothelial exposure to AGE albumin
# [2] = in the presence of glutathione (GSH)
Structure (SMILES),prevention of cataract development (lens),also measured
"O=C(O)CCCCC1CCSS1 (racemic) [racemic mixture, 1,2-dithiolane-3-pentanoic acid]",less than one-half as effective as the R isomer,
"O=C(O)CCCCC1CCSS1 (single isomer, unassigned) [S isomer, 1,2-dithiolane-3-pentanoic acid]",not effective,
"O=C(O)CCCCC1CCSS1 (centres unmarked) [LA, 1,2-dithiolane-3-pentanoic acid]",,depletion of GSH and ascorbic acid [1]: completely prevents depletion of GSH and ascorbic acid
"O=C(O)CCCCC1CCSS1 (stereo not drawn) [R stereoisomer of LA, 1,2-dithiolane-3-pentanoic acid]",can prevent cataract development,
"C[C@]12CC[C@@H]3c4ccc(O)cc4CC[C@H]3[C@@H]1CC[C@H]2O [estradiol, 17 α-estradiol]",,increase of neuroprotective potency [2]: 400 fold
